Assay results reported in patent publication US20190077774A1, “PEROXISOME PROLIFERATOR-ACTIVATED RECEPTOR AGONISTS” (City of Hope, priority 2017, published 2019).
“And” between values parts separate entries of the source, which are not always exact repeats. Equal values may be shown once. “Also recorded” adds a separate entry of the source.

Tests used:
C57Bl/6J female mice = assay: Serum triglyceride and lipid effects in C57Bl/6J female mice; assay type: in vivo
human PPARα = biological target: T1, human PPARα (Homo sapiens, UniProt Q07869); assay: PPAR-GAL4 transactivation assay in transiently transfected CV-1 cells; assay type: cell-based
T1 construct: expressed in transfected cells; host or cells: CV-1 (monkey kidney) cells, transient transfection
T1 sequence (Q07869 159-468): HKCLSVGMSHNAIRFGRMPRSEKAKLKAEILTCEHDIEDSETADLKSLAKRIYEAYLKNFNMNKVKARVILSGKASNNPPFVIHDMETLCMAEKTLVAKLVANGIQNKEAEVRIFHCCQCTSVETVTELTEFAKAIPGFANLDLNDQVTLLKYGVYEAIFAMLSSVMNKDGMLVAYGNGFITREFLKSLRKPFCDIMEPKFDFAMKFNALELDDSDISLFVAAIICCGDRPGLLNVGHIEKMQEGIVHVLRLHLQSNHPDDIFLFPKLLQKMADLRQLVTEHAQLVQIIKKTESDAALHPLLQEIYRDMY
Protocol: To assess the functional transcriptional activity of these compounds, cell-based assays using chimeric receptor Gal4 DNA-binding domain (DBD)-NR ligand binding domain cotransfection assay (LBDs of PPARα, PPARγ, and PPARδ) were performed. As an initial screen to determine the PPARα activity and selectivity, all compounds were evaluated for in vitro potency and selectivity by transfection testing, using CV-1 cells transfected with human and mouse PPARs. MH100×4 is a luciferase reporter with four copies of a GAL4 UASG response element, where GAL-I refers to the ligand-binding domain of the indicated receptor fused to the C-terminus of the GAL4 DNA-binding domain. Assays were performed using a Biomek automated workstation in which the genes for the nuclear receptor, as well as a plasmid containing a response element upstream of a luciferase cDNA, are transfected into CV-1 cells. Compounds were evaluated for their ability to activate human and mouse PPARs at […] test concentrations. […] The transactivation activity of the series of compounds (DY121-132, 10a-g) toward PPARα was expressed as EC50, which is the concentration of the test compound that affords half-maximum activity, as summarized in Table 1.
Cell-based reporter gene assays Cell based transactivation assays were performed in CV 1 cells as described (Forman, et al.). PPARα activity was assayed with a GAL4 reporter construct and fusion proteins containing the ligand binding domains of human PPARα, human PPARγ and human PPARδ linked to the DNA binding domain of yeast GAL4. Reporter constructs (300 ng/10^5 cells) and cytomegalovirus-driven expression vectors (20-50 ng/10^5 cells) were added as indicated along with CMX-b-gal (500 ng/10^5 cells) as an internal control. Cells were transiently transfected by Lipofectamine as described. Cells were incubated with DNA complexed liposomes for 2 h and subsequently treated for approximately 45 h with phenol red free DMEM FBS containing the indicated compounds. After exposure to ligand, the cells were harvested and assayed for luciferase and β-galactosidase activity. All points were assayed in triplicate and varied by less than 15%. Each experiment was repeated three or more times with similar results. Fold activation is reported.
In vitro binding and transfection studies. As an initial screen to determine the PPARα, PPARγ, and PPARδ activity, all compounds were evaluated for in vitro potency and selectivity by transfection testing, using CV-1 cells transfected with human and mouse PPARs. MH100×4 is a luciferase reporter with four copies of a GAL4 USAG response element, where GAL-I refers to the ligand-binding domain of the indicated receptor fused to the C-terminus of the GAL4 DNA-binding domain. Assays were performed using a Biomek automated workstation in which the gene for the nuclear receptor, as well as a plasmid containing a response element upstream of a luciferase cDNA, are transfected into CV-1 cells. Compounds were evaluated for their ability to activate human PPARs at 1, 2.5, 3, and 5 uM test concentrations.
Compounds were screened for agonist activity towards PPAR-GAL4 chimeric receptors in transiently transfected CV-1 cells as described. EC50 is the concentration of test compound that gave 50% maximum efficacy.

PPARα = biological target: T2, PPARα (Homo sapiens, UniProt Q07869); assay: PPRE-luc reporter assay in CV-1 cells co-transfected with PPARα and RXRα expression plasmids; assay type: cell-based; details: luciferase reporter
T2 construct: expressed in transfected cells; host or cells: CV-1 (monkey kidney) cells
T2 sequence (Q07869 1-468): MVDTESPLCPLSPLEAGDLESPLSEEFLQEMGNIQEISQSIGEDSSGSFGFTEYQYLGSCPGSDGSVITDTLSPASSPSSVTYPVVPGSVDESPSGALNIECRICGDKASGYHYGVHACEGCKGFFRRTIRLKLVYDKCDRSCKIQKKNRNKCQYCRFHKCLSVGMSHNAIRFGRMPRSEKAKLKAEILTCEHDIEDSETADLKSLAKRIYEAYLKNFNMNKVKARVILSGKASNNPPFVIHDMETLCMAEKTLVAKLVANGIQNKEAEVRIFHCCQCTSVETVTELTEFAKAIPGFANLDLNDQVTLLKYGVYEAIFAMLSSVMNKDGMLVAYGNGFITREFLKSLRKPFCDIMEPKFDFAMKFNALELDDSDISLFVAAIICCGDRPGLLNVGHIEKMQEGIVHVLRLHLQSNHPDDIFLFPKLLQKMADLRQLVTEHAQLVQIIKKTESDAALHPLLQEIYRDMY
T2 sequence (P19793 1-462 partner): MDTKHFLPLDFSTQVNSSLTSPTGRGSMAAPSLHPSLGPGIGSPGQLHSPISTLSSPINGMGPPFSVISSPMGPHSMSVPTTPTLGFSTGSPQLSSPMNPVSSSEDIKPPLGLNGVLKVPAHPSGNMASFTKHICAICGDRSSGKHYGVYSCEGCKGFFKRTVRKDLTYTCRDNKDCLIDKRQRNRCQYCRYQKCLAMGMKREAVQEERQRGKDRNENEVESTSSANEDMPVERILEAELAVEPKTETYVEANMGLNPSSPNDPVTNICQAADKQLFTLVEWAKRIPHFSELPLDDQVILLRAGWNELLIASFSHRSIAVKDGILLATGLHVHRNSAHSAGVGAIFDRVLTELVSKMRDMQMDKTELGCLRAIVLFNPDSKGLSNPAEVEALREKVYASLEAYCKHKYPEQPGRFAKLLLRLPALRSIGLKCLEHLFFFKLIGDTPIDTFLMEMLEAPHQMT
Protocol: In brief, monkey kidney CV-1 cells were co-transfected with appropriate reporter constructs and expression vectors. The fold activation of the reporter construct by ligand was determined at several concentrations of selected compounds (FIG. 4).^20 To examine the effect of DY-compound on PPARα-mediated PPRE transcriptional activation, a PPRE-luc reporter assay was conducted using a PPRE-driven luciferase reporter-gene (PPRE-luc) plasmid and PPARα and RXRα gene expression plasmids in CV-1 cells.

fold greater PPARα agonistic activity compared to LY518674 (human PPARα): 42 fold
EC50 (human PPARα; PPAR-GAL4 chimeric receptor, CV-1 cells, read-out: EC50(nM) hPPARα): 0.85 nM and 1 nM
selectivity over PPARγ and PPARδ (human PPARα; PPAR-GAL4 transactivation assays): excellent selectivity
PPARα activation / PPRE-luc activity (PPARα): highest PPARα activation
Compound: COc1ccc(Cn2c(CCCc3ccc(OC(C)(C)C(=O)O)cc3)nn(Cc3ccc(C)cc3)c2=O)cc1 [10a, 2-(4-{3-[4-(4-Methoxy-benzyl)-1-(4-methyl-benzyl)-5-oxo-4,5-dihydro-1H[1,2,4]triazol-3-yl]-propyl}-phenoxy)-2-methyl-propionic acid]
triglycerides, time course (C57Bl/6J female mice; 24 h vs 72 h, wild type and PPARα-knockout mice (FIG. 8)): maintained over 72 h in wild type but not PPARα-knockout mice
triglycerides, chronic treatment (C57Bl/6J female mice; 7 day period (FIG. 10)): suppressed triglycerides over the entire 7 day period
dose-response of triglyceride suppression (C57Bl/6J female mice; FIG. 7, listed as DY121): Dose-response suppression; also recorded: dose-dependent anti-dyslipidemic effects
FFA and glycerol time course (C57Bl/6J female mice; FIG. 14 and 15): early increase (lipolytic burst) followed by decline
